Laboratory results as given in patent US10183943B2, “Heterocyclic compounds and their use in preventing or treating bacterial infections” (MUTABILIS, priority 2015, dated 2019).
Where a name gives a salt, the structure may show the parent alone.

What was measured:
[1] = test system: E. cloacae UFR51 (SHV-12, IMP-8); experiment: MIC of ceftazidime (CAZ) in combination with compounds at 4 μg/mL, broth microdilution; assay type: cell-based; conditions: strain UFR51; MIC of CAZ with compound fixed at 4 μg/mL
How it was run: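 Compounds were dissolved in DMSO and spotted onto plates. Log-phase cells were then added at 5×10^5 cfu/mL in cation-adjusted Mueller-Hinton broth, incubated 16-20 h at 35° C, and the MIC was scored visually as the lowest growth-inhibiting concentration.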

AmpC (P99) = AmpC (P99) (Enterobacter cloacae, UniProt P05364); experiment: β-lactamase inhibitory activity, determination of IC50 (nitrocefin hydrolysis)
AmpC (P99), sequence (P05364 21-381): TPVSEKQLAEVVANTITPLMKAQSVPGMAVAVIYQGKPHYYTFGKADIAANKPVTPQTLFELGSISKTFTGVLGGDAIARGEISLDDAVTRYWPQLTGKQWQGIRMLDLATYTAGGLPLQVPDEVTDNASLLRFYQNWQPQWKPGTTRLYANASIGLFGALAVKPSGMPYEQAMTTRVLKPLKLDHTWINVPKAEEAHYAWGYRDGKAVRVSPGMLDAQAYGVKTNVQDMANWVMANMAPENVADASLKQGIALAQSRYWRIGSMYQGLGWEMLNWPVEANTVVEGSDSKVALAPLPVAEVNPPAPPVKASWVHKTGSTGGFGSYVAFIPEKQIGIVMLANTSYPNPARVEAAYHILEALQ

CTX-M-15 = biological target: T1, CTX-M-15 (Escherichia coli, UniProt Q9EXV5); experiment: as above; assay type: biochemical; conditions: class (A); nitrocefin 200 μM, 30 min pre-incubation; read-out: IC50 β-lactamase CTX-M-15
T1 construct: made in house; host or cells: E. coli
T1 sequence (Q9EXV5 entry or part of it): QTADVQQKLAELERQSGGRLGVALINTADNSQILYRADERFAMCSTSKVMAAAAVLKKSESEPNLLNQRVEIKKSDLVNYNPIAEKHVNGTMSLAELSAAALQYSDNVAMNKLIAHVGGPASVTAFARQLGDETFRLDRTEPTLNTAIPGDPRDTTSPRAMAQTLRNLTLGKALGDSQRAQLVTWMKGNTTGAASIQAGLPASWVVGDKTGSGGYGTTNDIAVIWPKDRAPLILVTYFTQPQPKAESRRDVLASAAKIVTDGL

OXA-1 = biological target: T2, OXA-1 (Escherichia coli, UniProt P13661); experiment: as above; assay type: biochemical; conditions: class (D); nitrocefin 200 μM, 30 min pre-incubation; read-out: IC50 β-lactamase OXA-1
T2 construct: made in house; host or cells: E. coli
T2 sequence (P13661 26-276): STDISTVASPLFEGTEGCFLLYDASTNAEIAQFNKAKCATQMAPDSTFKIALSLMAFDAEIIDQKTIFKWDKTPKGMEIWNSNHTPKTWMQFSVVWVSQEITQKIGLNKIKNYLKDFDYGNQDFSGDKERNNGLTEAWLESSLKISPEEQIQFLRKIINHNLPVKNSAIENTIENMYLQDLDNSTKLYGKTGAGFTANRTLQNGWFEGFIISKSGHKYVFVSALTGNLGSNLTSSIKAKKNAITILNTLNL

[2] = test system: K. pneumoniae BAA-1898 (TEM-1, SHV-11, SHV-12, KPC-2); experiment: MIC of compounds alone, broth microdilution; assay type: cell-based; conditions: Klebsiella pneumoniae, BAA1898; strain BAA-1898 (K. pneumoniae); read-out: MIC compounds of the invention alone
How it was run: (§1)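 MIC taken by visual inspection as lowest concentration with no growth, after 16-20 h at 35 °C in ambient air. Compounds tested alone from DMSO by CLSI broth microdilution; inoculum of log-phase cells at 5×10^5 cfu/mL in cation-adjusted Mueller-Hinton broth.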

[3] = test system: K. pneumoniae UFR39 (CTX-M-15, NDM-1); experiment: MIC of compounds alone, broth microdilution; assay type: cell-based; conditions: Klebsiella pneumoniae; strain UFR39 (K. pneumoniae); read-out: MIC compounds of the invention alone
How it was run: as §1

[4] = test system: K. pneumoniae 160143 (TEM-1, SHV-1, CTX-M-15, KPC-2, OXA-1); experiment: MIC of compounds alone, broth microdilution; assay type: cell-based; conditions: Klebsiella pneumoniae, read-out: MIC compounds of the invention alone
How it was run: as §1

[5] = test system: E. coli UFR74 (SHV-1, DHA-1); experiment: MIC of compounds alone, broth microdilution; assay type: cell-based; conditions: Escherichia coli; strain UFR74 (E. coli); read-out: MIC compounds of the invention alone
How it was run: as §1

[6] = test system: E. cloacae UFR51 (SHV-12, IMP-8); experiment: MIC of compounds alone, broth microdilution; assay type: cell-based; conditions: Enterobacter cloacae; strain UFR51 (E. cloacae); read-out: MIC compounds of the invention alone
How it was run: as §1

[7] = test system: E. coli 131119 (TEM-1, OXA-48); experiment: MIC of compounds alone, broth microdilution; assay type: cell-based; conditions: Escherichia coli; strain 131119 (E. coli); read-out: MIC compounds of the invention alone
How it was run: as §1

[8] = test system: K. pneumoniae UFR77 (CMY-2); experiment: MIC of compounds alone, broth microdilution; assay type: cell-based; conditions: Klebsiella pneumoniae; strain UFR77 (K. pneumoniae); read-out: MIC compounds of the invention alone
How it was run: as §1

[9] = test system: E. coli UFR41 (TEM-1, CTX-M-15, CMY-2, OXA-1, NDM-4); experiment: MIC of compounds alone, broth microdilution; assay type: cell-based; conditions: Escherichia coli, read-out: MIC compounds of the invention alone
How it was run: as §1

E. cloacae P99 (AmpC) = experiment: MIC of compounds alone, broth microdilution; assay type: cell-based; conditions: Enterobacter cloacae; strain P99 (E. cloacae); read-out: MIC compounds of the invention alone
How it was run: as §1

[10] = test system: E. coli UFR32 (TEM-1, VEB-1, OXA-10); experiment: MIC of compounds alone, broth microdilution; assay type: cell-based; conditions: Escherichia coli; strain UFR32 (E. coli); read-out: MIC compounds of the invention alone
How it was run: as §1

[11] = test system: K. pneumoniae 6299 (TEM-1, SHV-11, OXA-163); experiment: MIC of compounds alone, broth microdilution; assay type: cell-based; conditions: Klebsiella pneumoniae; strain 6299 (K. pneumoniae); read-out: MIC compounds of the invention alone
How it was run: as §1

[12] = test system: K. oxytoca UFR21 (TEM-1, CTX-M-15, OXA-48); experiment: MIC of compounds alone, broth microdilution; assay type: cell-based; conditions: Klebsiella oxytoca, read-out: MIC compounds of the invention alone
How it was run: as §1

[13] = test system: P. aeruginosa CIP107051 (TEM-24); experiment: MIC of compounds alone, broth microdilution; assay type: cell-based; conditions: Pseudomonas aeruginosa; strain CIP107051 (P. aeruginosa); read-out: MIC compounds of the invention alone
How it was run: as §1

AmpC P. aeruginosa = AmpC P. aeruginosa (Pseudomonas aeruginosa, UniProt P24735); experiment: β-lactamase inhibitory activity, determination of IC50 (nitrocefin hydrolysis)
AmpC P. aeruginosa, sequence (P24735 27-397): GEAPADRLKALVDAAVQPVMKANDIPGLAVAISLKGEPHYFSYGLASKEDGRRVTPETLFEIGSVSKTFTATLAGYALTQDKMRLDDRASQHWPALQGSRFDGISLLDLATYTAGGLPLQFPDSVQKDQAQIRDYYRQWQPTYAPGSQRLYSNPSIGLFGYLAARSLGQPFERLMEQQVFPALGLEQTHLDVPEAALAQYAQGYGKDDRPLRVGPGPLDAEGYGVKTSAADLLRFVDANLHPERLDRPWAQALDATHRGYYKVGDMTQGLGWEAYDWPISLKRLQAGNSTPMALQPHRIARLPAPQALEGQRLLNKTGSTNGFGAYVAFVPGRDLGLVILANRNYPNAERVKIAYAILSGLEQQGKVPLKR

OXA-15 = biological target: T3, OXA-15 (Pseudomonas aeruginosa, UniProt Q51574); experiment: biochemical
T3 construct: made in house; host or cells: E. coli
T3 sequence (Q51574 22-275): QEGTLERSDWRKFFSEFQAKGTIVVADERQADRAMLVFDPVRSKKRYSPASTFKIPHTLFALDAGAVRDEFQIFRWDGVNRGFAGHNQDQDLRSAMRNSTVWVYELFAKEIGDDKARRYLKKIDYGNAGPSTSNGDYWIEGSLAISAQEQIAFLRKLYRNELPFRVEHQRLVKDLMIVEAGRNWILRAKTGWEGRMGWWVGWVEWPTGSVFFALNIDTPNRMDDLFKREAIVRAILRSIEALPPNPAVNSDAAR

OXA-11 = biological target: T4, OXA-11 (Pseudomonas aeruginosa, UniProt Q06778); experiment: β-lactamase inhibitory activity, determination of IC50 (nitrocefin hydrolysis); assay type: biochemical
T4 construct: made in house; host or cells: E. coli
T4 sequence (Q06778 21-266): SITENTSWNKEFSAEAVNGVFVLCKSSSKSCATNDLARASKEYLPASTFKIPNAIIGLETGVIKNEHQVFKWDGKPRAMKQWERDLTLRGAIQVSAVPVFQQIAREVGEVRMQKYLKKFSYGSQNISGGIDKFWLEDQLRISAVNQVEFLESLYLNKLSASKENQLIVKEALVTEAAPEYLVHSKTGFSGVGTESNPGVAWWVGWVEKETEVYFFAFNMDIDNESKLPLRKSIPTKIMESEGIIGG

SHV-1 = biological target: T5, SHV-1 (Klebsiella pneumoniae, UniProt P0AD64); experiment: as above; assay type: biochemical
T5 construct: made in house; host or cells: E. coli
T5 sequence (P0AD64 22-286): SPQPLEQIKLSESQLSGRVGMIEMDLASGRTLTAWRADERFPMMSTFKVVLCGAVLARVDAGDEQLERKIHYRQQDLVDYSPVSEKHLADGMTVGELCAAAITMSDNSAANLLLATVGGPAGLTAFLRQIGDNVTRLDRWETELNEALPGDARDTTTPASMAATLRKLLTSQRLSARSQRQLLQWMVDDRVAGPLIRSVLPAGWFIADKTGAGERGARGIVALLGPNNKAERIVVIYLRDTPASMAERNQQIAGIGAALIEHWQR

KPC-2 = biological target: T6, KPC-2 (Klebsiella pneumoniae, UniProt Q9F663); experiment: as above; assay type: biochemical; conditions: class (A); nitrocefin 200 μM, 30 min pre-incubation; read-out: IC50 β-lactamase KPC-2
T6 construct: made in house; host or cells: E. coli
T6 sequence (Q9F663 25-293 limits assumed): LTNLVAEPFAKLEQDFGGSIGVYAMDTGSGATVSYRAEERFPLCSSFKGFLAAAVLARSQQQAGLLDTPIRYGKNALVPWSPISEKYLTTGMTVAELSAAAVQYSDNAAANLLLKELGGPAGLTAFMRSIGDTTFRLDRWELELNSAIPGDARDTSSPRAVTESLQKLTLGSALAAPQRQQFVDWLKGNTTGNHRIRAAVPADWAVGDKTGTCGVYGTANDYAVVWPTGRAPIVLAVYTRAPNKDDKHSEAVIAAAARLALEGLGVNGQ

TEM-1 = biological target: T7, TEM-1 (Escherichia coli, UniProt P62593); experiment: as above; assay type: biochemical
T7 construct: made in house; host or cells: E. coli
T7 sequence (P62593 24-286 limits assumed): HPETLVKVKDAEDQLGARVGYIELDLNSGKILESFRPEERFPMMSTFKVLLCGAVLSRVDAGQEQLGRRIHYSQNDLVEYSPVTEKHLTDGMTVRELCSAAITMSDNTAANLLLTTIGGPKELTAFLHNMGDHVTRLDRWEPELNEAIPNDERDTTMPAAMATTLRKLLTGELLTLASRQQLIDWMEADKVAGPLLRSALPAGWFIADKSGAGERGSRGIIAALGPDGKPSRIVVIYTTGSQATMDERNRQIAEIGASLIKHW

OXA-48 = biological target: T8, OXA-48 (Klebsiella pneumoniae, UniProt Q6XEC0); experiment: as above; assay type: biochemical; conditions: class (D); nitrocefin 200 μM, 30 min pre-incubation; read-out: IC50 β-lactamase OXA-48
T8 construct: made in house; host or cells: E. coli
T8 sequence (Q6XEC0 23-265 limits assumed): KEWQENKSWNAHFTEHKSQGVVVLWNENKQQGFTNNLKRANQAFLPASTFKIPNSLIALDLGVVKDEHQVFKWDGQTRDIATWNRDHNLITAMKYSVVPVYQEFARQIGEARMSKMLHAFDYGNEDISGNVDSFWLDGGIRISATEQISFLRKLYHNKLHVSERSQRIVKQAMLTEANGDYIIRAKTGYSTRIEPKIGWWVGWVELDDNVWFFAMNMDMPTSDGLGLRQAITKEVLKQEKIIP

| SMILES | MIC combination of CAZ and compounds of the invention at 4 μg/mL [1] | IC50 (AmpC (P99)) | IC50 (CTX-M-15) | IC50 (OXA-1) | MIC [2] | MIC [3] | MIC [4] | MIC [5] | MIC [6] | MIC [7] | MIC [8] | MIC [9] | MIC (E. cloacae P99 (AmpC)) | MIC [10] | MIC [11] | MIC [12] | MIC [13] | IC50 (AmpC P. aeruginosa) | IC50 (OXA-15) | IC50 (OXA-11) | other results |
| --- | --- | --- | --- | --- | --- | --- | --- | --- | --- | --- | --- | --- | --- | --- | --- | --- | --- | --- | --- | --- | --- |
| O=C1N2CC(c3ncco3)=CC(C2)N1OS(=O)(=O)[O-].[Na+] (stereo not drawn) [Example 25, Sodium [3-(oxazol-2-yl)-7-oxo-1,6-diazabicyclo[3.2.1]oct-3-en-6-yl]sulfate] | <0.25 mg/L | 0.064 µM | 0.015 µM | 0.31 µM | 4 mg/L | 8 mg/L | 4 mg/L | 4 mg/L | 4 mg/L | 2 mg/L | 4 mg/L | 16 mg/L | 8 mg/L | 2 mg/L | 8 mg/L | 4 mg/L | > 128 mg/L | 0.097 µM | 0.3 µM | 0.19 µM | IC50 (SHV-1): 0.015 µM; IC50 (KPC-2): 0.03 µM; IC50 (TEM-1): 0.0038 µM; IC50 (OXA-48): 0.0066 µM |
| Cn1cc(C2=CCN3CC2N(OS(=O)(=O)[O-])C3=O)cnc1=O.[Na+] (stereo not drawn) [Example 15, Sodium [4-(N-methyl-2-oxo-pyrimidin-5-yl)-7-oxo-1,6-diazabicyclo[3.2.1]oct-3-en-6-yl] sulfate] | 1 mg/L | 2 µM | 0.0063 µM | 1.1 µM | > 32 mg/L | 0.5 mg/L | > 32 mg/L | > 32 mg/L | 0.5 mg/L | 4 mg/L | > 32 mg/L | > 32 mg/L | 2 mg/L | 1 mg/L | > 32 mg/L | 32 mg/L | > 32 mg/L | 3.5 µM | 0.29 µM | 2.6 µM | IC50 (SHV-1): 0.012 µM; IC50 (KPC-2): 0.11 µM; IC50 (TEM-1): 0.0099 µM; IC50 (OXA-48): 0.0079 µM |
| O=C1N2CC=C(c3cnco3)C(C2)N1OS(=O)(=O)[O-].[Na+] (stereo not drawn) [Example 3, Sodium [4-(oxazol-5-yl)-7-oxo-1,6-diazabicyclo[3.2.1]oct-3-en-6-yl]sulfate] | <0.25 mg/L | 0.77 µM | 0.0028 µM | 0.21 µM | > 32 mg/L | 4 mg/L | > 32 mg/L | > 32 mg/L | 2 mg/L | 4 mg/L | > 32 mg/L | > 32 mg/L | 8 mg/L | > 32 mg/L | > 32 mg/L | > 32 mg/L | > 32 mg/L | 2 µM | 0.033 µM | 1.1 µM | IC50 (SHV-1): 0.0069 µM; IC50 (KPC-2): 0.29 µM; IC50 (TEM-1): 0.0034 µM; IC50 (OXA-48): 0.0035 µM |
| O=C1N2CC(c3ncco3)=C[C@H](C2)N1OS(=O)(=O)[O-].[Na+] [Example 44, Sodium [(5R)-3-(oxazol-2-yl)-7-oxo-1,6-diazabicyclo[3.2.1]oct-3-en-6-yl] sulfate] | <0.25 mg/L | 0.01 µM | 0.00061 µM | 0.087 µM | 4 mg/L | 4 mg/L | 1 mg/L | 2 mg/L | 1 mg/L | 0.5 mg/L | 2 mg/L | 4 mg/L | 4 mg/L | 1 mg/L | 4 mg/L | 4 mg/L | > 32 mg/L | 0.075 µM | 0.067 µM | 0.046 µM | IC50 (SHV-1): 0.006 µM; IC50 (KPC-2): 0.011 µM; IC50 (TEM-1): 0.00069 µM; IC50 (OXA-48): 0.0015 µM |
| Cn1ncc(C2=CCN3CC2N(OS(=O)(=O)[O-])C3=O)cc1=O.[Na+] (stereo not drawn) [Example 19, Sodium [4-(1-methyl-6-oxo-pyridazin-4-yl)-7-oxo-1,6-diazabicyclo[3.2.1]oct-3-en-6-yl] sulfate] | <0.25 mg/L | 0.94 µM | 0.0054 µM | 0.38 µM | > 32 mg/L | 4 mg/L | > 32 mg/L | > 32 mg/L | 4 mg/L | 2 mg/L | > 32 mg/L | > 32 mg/L | 8 mg/L | > 32 mg/L | > 32 mg/L | > 32 mg/L | > 32 mg/L | 1.8 µM | 0.075 µM | 0.29 µM | IC50 (SHV-1): 0.0089 µM; IC50 (KPC-2): 0.046 µM; IC50 (TEM-1): 0.004 µM; IC50 (OXA-48): 0.0047 µM |
| NCc1cnc(C2=CC3CN(C2)C(=O)N3OS(=O)(=O)O)s1 (stereo not drawn) [Example 38, [3-[5-(aminomethyl)thiazol-2-yl]-7-oxo-1,6-diazabicyclo[3.2.1]oct-3-en-6-yl] hydrogen sulfate] | <0.25 mg/L | 0.031 µM | 0.00079 µM | 0.63 µM | > 32 mg/L | 0.5 mg/L | 8 mg/L | 32 mg/L | 1 mg/L | 4 mg/L | 32 mg/L | 1 mg/L | 4 mg/L | 32 mg/L | > 32 mg/L | 16 mg/L | > 32 mg/L | 0.32 µM | 0.28 µM | 0.56 µM | IC50 (SHV-1): 0.0043 µM; IC50 (KPC-2): 0.019 µM; IC50 (TEM-1): 0.0007 µM; IC50 (OXA-48): 0.0077 µM |
